# In patent EP0182152B1, “Antitumor antibiotics (LL-E33288 Complex)” (AMERICAN CYANAMID COMPANY, priority 1984, dated 1986):
# Experiments:
# [1] = system: lymphocytic leukemia P388; test: Lymphocytic Leukemia P388 Test; assay type: in vivo, BDF1 mice; conditions: Table IX
# Source text: (§1) Certain in vivo testing systems and protocols have been developed by the National Cancer Institute for testing compounds to determine their suitability as anti-neoplastic agents. These have been reported in "Cancer Chemotherapy Reports", Part III, Vol. 3, No. 2 (1972), Geran, et al. These protocols have established standardized screening tests which are generally followed in the field of testing for antitumor agents. Of these systems, lymphocytic leukemia P388, melanotic melanoma B16, L1210 leukemia and colon 26 adenocarcinoma are particularly significant to the present invention. These neoplasms are utilized for testing as transplantable tumors in mice. Generally, significant anti-tumor activity, shown in these protocols by a percentage increase of mean survival times of the treated animals (T) over the control animals (C), is indicative of similar results in human leukemias and solid tumors.
# The animals used were BDF1 mice, all of one sex, weighing a minimum of 17 g and all within a 3 g weight range. There were 5 or 6 mice per test group. The tumor transplant was by intraperitoneal injection of 0.5 ml of dilute ascitic fluid containing 10^6 cells of lymphocytic leukemia P388. LL-E33288 antibiotics were tested in the P388 system both as the individual β1-Br and […] components and as a complex of all components (Bromo-complex). The test compounds were administered intrapertioneally at a volume of 0.5 ml in 0.2% Klucel in normal saline on days 1, 5 and 9 (relative to tumor inoculation) at the indicated doses. The mice were weighed and the survivors recorded on a regular basis for 30 days. The median survival time and the ratio of survival time for treated (T)/control (C) animals were calculated. The positive control compound was Cisplatin given as an intraperitioneal injection in 0.5 ml of 0.2% Klucel on days 1, 5 and 9 at the indicated doses.
# If T/C X 100 (%) is 125 or over, the tested compound is considered to have significant anti-tumor activity.
# (§2) In the same manner, the following iodo-components were tested for antineoplastic activity.
# [2] = system: lymphocytic leukemia L1210; test: Lymphocytic Leukemia L1210 Test; assay type: in vivo, BDF1 mice; conditions: Table XI, control 9 days
# Source text: as §1
# The animals used were BDF1 mice, all of one sex, weighing a minimum of 17 g and all within a 3 g weight range. There were 6 mice in each test group and 18 in control groups. The tumor transplant was by intraperitoneal injection of 0.5 ml of lymphocytic leukemia L1210 at a concentration of 10^5 cells per mouse. LL-E33288 antibiotics were tested in the L1210 system both as the individual β1-Br component and as a complex of all components (Bromo-complex). The test compounds were administered on days 1, 5 and 9 or days 1 through 9 (relative to tumor inoculation) at various doses. The mice were weighed and survivors recorded on a regular basis for 30 days. The median survival time and the ratio of survival time for treated (T)/control (C) animals were calculated. The positive control compound was 1,4-dihydroxy-5,8-bis[[2-(2-hydroxyethylamino)ethyl]amino]anthraquinone dihydrochloride or Cisplatin given intraperitoneally at the indicated dose. If T/C X 100 (%) is 125 or over, the tested compound is considered to have significant anti-tumor activity.
# as §2
# melanotic melanoma B16 = test: Melanotic Melanoma B16 Test; assay type: in vivo, BDF1 mice; conditions: Table X, control value not given
# Source text: as §1
# The animals used were BDF1 mice, all of the same sex, weighing a minimum of 17 g and all within a 3 g weight range. There are normally 6 animals per test group. A 1 g portion of melanotic melanoma β16 tumor was homogenized in 10 ml of cold balanced salt solution and a 0.5 ml aliquot of the homogenate was implanted intraperitoneally into each of the test mice. LL-E33288 antibiotics were tested in the β16 system both as the individual β1-Br and γ1-Br components and as a complex of all components (Bromo-complex). The test compounds were administered intraperitioneally on days 1 through 9 (relative to tumor inoculation) at various doses. The mice were weighed and survivors recorded on a regular basis for 60 days. The median survival time and the ratio of survival time for treated (T)/control (C) animals were calculated. The positive control compounds were Cisplatin or Adriamycin. The results of this test appear in Table V. If T/C X 100 (%) is 125 or over, the tested compound is considered to have significant anti-tumor activity.
# as §2
# Colon 26 tumor = test: Colon 26 Adenocarcinoma Test; assay type: in vivo, CD2F1 female mice; conditions: Table XII, control 18.5 days
# Source text: as §1
# The animals used were CD2F1 female mice weighing a minimum of 17 g and all within a 3 g weight range. There were 5 or 6 mice per test group with three groups of 5 or 6 animals used as untreated controls for each test. The tumor implant was by intraperitoneal (or subcutaneous) injection of 0.5 ml of a 2% Colon 26 tumor brei in Eagle's MEM medium containing antibiotics. LL-E33288 antibiotics were tested in the Colon 26 system as a complex (Bromo-complex) of all components. The test compounds were administered intraperitoneally on days 1, 5 and 9 (relative to tumor implant doses). The mice were weighed and deaths recorded on a regular basis for 30 days. The median survival times for treated (T)/control (C) animals were calculated. The positive control compound was Cisplatin. If T/C X 100 (%) is 130 or over, the tested compound is considered to have significant anti-tumor activity.
# as §2
# [3] = Test 1, dose .00015 mg/kg, control 13 days
# [4] = Test 1, dose .0003 mg/kg, control 13 days
# [5] = Test 1, dose .0006 mg/kg, control 13 days
# [6] = Test 1, dose .00125 mg/kg, control 13 days
# [7] = Test 1, dose .0025 mg/kg, control 13 days
# [8] = Test 1, dose .005 mg/kg, control 13 days
# [9] = Test 2, dose - .00125 mg/kg, control 11 days
# [10] = Test 2, dose .00015 mg/kg, control 11 days
# [11] = Test 2, dose .0003 mg/kg, control 11 days
# [12] = Test 2, dose .0006 mg/kg, control 11 days
# [13] = Test 2, dose .0025 mg/kg, control 11 days
# [14] = Test 2, dose .005 mg/kg, control 11 days
# [15] = Test 2, dose .01 mg/kg, control 11 days
structure (smiles),measurement,setting,value
CCN[C@H]1CO[C@@H](O[C@H]2[C@H](O[C@H]3C#CC=CC#C[C@@]4(O)CC(=O)C(NC(=O)OC)=C3/C4=C\CSSSC)O[C@H](C)[C@@H](NO[C@H]3C[C@H](O)[C@H](SC(=O)c4c(C)c(I)c(O[C@@H]5O[C@@H](C)[C@H](O)[C@@H](OC)[C@H]5O)c(OC)c4OC)[C@@H](C)O3)[C@@H]2O)C[C@@H]1OC (stereo in doubt) [LL-E33288γ1-I],Median Survival,[1]; [3],15 days
same,T/C x 100,[1]; [3],115%
same,Median Survival,[1]; [4],15.5 days
same,T/C x 100,[1]; [4],119%
same,Median Survival,[1]; [5],18 days
same,T/C x 100,[1]; [5],138%
same,Median Survival,[1]; [6],18.5 days
same,T/C x 100,[1]; [6],142%
same,Median Survival,[1]; [7],22 days
same,T/C x 100,[1]; [7],169%
same,Median Survival,[1]; [8],>25.5 days
same,T/C x 100,[1]; [8],>196%
same,Median Survival,[1]; [9],18.5 days
same,T/C x 100,[1]; [9],168%
same,Median Survival,[1]; [10],14 days
same,T/C x 100,[1]; [10],127%
same,Median Survival,[1]; [11],14 days
same,T/C x 100,[1]; [11],127%
same,Median Survival,[1]; [12],16 days
same,T/C x 100,[1]; [12],145%
same,Median Survival,[1]; [13],22.5 days
same,T/C x 100,[1]; [13],205%
same,Median Survival,[1]; [14],18 days
same,T/C x 100,[1]; [14],164%
same,Median Survival,[1]; [15],11 days
same,T/C x 100,[1]; [15],100%
same,Median Survival,[2]; dose .0006 mg/kg,10 days
same,T/C x 100,[2]; dose .0006 mg/kg,111%
same,Median Survival,[2]; dose .0012 mg/kg,10.5 days
same,T/C x 100,[2]; dose .0012 mg/kg,117%
same,Median Survival,[2]; dose .0025 mg/kg,11 days
same,T/C x 100,[2]; dose .0025 mg/kg,122%
same,Median Survival,[2]; dose .005 mg/kg,14 days
same,T/C x 100,[2]; dose .005 mg/kg,156%
same,Median Survival,[2]; dose .01 mg/kg,8 days
same,T/C x 100,[2]; dose .01 mg/kg,89%
same,Median Survival,melanotic melanoma B16; dose .00007 mg/kg,30.5 days
same,T/C x 100,melanotic melanoma B16; dose .00007 mg/kg,179%
same,Median Survival,melanotic melanoma B16; dose .00015 mg/kg,33.5 days
same,T/C x 100,melanotic melanoma B16; dose .00015 mg/kg,197%
same,Median Survival,melanotic melanoma B16; dose .0003 mg/kg,35.5 days
same,T/C x 100,melanotic melanoma B16; dose .0003 mg/kg,209%
same,Median Survival,melanotic melanoma B16; dose .0006 mg/kg,42.5 days
same,T/C x 100,melanotic melanoma B16; dose .0006 mg/kg,250%
same,Median Survival,melanotic melanoma B16; dose .00125 mg/kg,27 days
same,T/C x 100,melanotic melanoma B16; dose .00125 mg/kg,159%
same,Median Survival,melanotic melanoma B16; dose .0025 mg/kg,26.5 days
same,T/C x 100,melanotic melanoma B16; dose .0025 mg/kg,156%
same,Median Survival,"Colon 26 tumor; dose ,0006 mg/kg",23.5 days
same,T/C x 100,"Colon 26 tumor; dose ,0006 mg/kg",127%
same,Median Survival,Colon 26 tumor; dose .00007 mg/kg,17 days
same,T/C x 100,Colon 26 tumor; dose .00007 mg/kg,92%
same,Median Survival,Colon 26 tumor; dose .00015 mg/kg,17.5 days
same,T/C x 100,Colon 26 tumor; dose .00015 mg/kg,95%
same,Median Survival,Colon 26 tumor; dose .0003 mg/kg,20 days
same,T/C x 100,Colon 26 tumor; dose .0003 mg/kg,108%
same,Median Survival,Colon 26 tumor; dose .00125 mg/kg,22.5 days
same,T/C x 100,Colon 26 tumor; dose .00125 mg/kg,122%
same,Median Survival,Colon 26 tumor; dose .0025 mg/kg,27 days
same,T/C x 100,Colon 26 tumor; dose .0025 mg/kg,146%
same,Median Survival,Colon 26 tumor; dose .005 mg/kg,25.5 days
same,T/C x 100,Colon 26 tumor; dose .005 mg/kg,138%
same,Median Survival,Colon 26 tumor; dose .01 mg/kg,11 days
same,T/C x 100,Colon 26 tumor; dose .01 mg/kg,59%
